Data taken from the NIST ThermoML archive (doi:10.1016/j.jct.2016.10.023).

Experiment: xn = mol fraction of the nth substance listed
Conditions: Constant-volume piezometry

CCCCC [pentane] + CCCO
Conditions	mass density [kg/m3]
492.15 K, 4052 kPa, Gas, x1 = 0.5	144.33
492.15 K, 4112 kPa, Gas, x1 = 0.5	154.72
493.15 K, 888 kPa, Gas, x1 = 0.5	15.54
493.15 K, 1226 kPa, Gas, x1 = 0.8	22.56
493.15 K, 1421 kPa, Gas, x1 = 0.2	24.96
493.15 K, 1591 kPa, Gas, x1 = 0.5	30.02
493.15 K, 1810 kPa, Gas, x1 = 0.8	36.74
493.15 K, 2098 kPa, Gas, x1 = 0.5	40.54
493.15 K, 2429 kPa, Gas, x1 = 0.5	51.17
493.15 K, 2601 kPa, Gas, x1 = 0.8	58.5
493.15 K, 2706 kPa, Gas, x1 = 0.2	53.08
493.15 K, 2984 kPa, Gas, x1 = 0.5	67.61
493.15 K, 3042 kPa, Gas, x1 = 0.8	73.9
493.15 K, 3148 kPa, Gas, x1 = 0.5	72.7
493.15 K, 3184 kPa, Gas, x1 = 0.9	83.5
493.15 K, 3462 kPa, Gas, x1 = 0.5	89.03
493.15 K, 3598 kPa, Gas, x1 = 0.5	95.98
493.15 K, 3742 kPa, Gas, x1 = 0.8	106.55
493.15 K, 3862 kPa, Fluid (supercritical or subcritical phases), x1 = 0.9	123.52
493.15 K, 3941 kPa, Gas, x1 = 0.5	122.07
493.15 K, 3987 kPa, Fluid (supercritical or subcritical phases), x1 = 0.9	134.31
493.15 K, 4087 kPa, Gas, x1 = 0.5	144.32
493.15 K, 4129 kPa, Liquid, x1 = 0.2	471.17
493.15 K, 4161 kPa, Gas, x1 = 0.5	154.71
493.15 K, 4227 kPa, Gas, x1 = 0.5	165.38
493.15 K, 4237 kPa, Fluid (supercritical or subcritical phases), x1 = 0.8	140.51
493.15 K, 4263 kPa, Gas, x1 = 0.5	183.12
493.15 K, 4268 kPa, Fluid (supercritical or subcritical phases), x1 = 0.9	164.19
493.15 K, 4335 kPa, Fluid (supercritical or subcritical phases), x1 = 0.5	282.8
493.15 K, 4335 kPa, Fluid (supercritical or subcritical phases), x1 = 0.8	156.27
493.15 K, 4414 kPa, Fluid (supercritical or subcritical phases), x1 = 0.5	299.12
493.15 K, 4423 kPa, Fluid (supercritical or subcritical phases), x1 = 0.8	170.03
493.15 K, 4439 kPa, Fluid (supercritical or subcritical phases), x1 = 0.9	189.73
493.15 K, 4462 kPa, Fluid (supercritical or subcritical phases), x1 = 0.8	176.28
493.15 K, 4502 kPa, Fluid (supercritical or subcritical phases), x1 = 0.8	181.09
493.15 K, 4518 kPa, Fluid (supercritical or subcritical phases), x1 = 0.9	202.67
493.15 K, 4547 kPa, Fluid (supercritical or subcritical phases), x1 = 0.8	193.44
493.15 K, 4549 kPa, Fluid (supercritical or subcritical phases), x1 = 0.5	320.48
493.15 K, 4592 kPa, Fluid (supercritical or subcritical phases), x1 = 0.5	325.77
493.15 K, 4629 kPa, Fluid (supercritical or subcritical phases), x1 = 0.9	221.01
493.15 K, 4679 kPa, Fluid (supercritical or subcritical phases), x1 = 0.8	214.17
493.15 K, 4710 kPa, Fluid (supercritical or subcritical phases), x1 = 0.8	219.94
493.15 K, 4720 kPa, Fluid (supercritical or subcritical phases), x1 = 0.9	233.41
493.15 K, 4743 kPa, Fluid (supercritical or subcritical phases), x1 = 0.9	236.88
493.15 K, 4769 kPa, Fluid (supercritical or subcritical phases), x1 = 0.9	241.29
493.15 K, 4776 kPa, Fluid (supercritical or subcritical phases), x1 = 0.5	345.09
493.15 K, 4792 kPa, Fluid (supercritical or subcritical phases), x1 = 0.9	244.6
493.15 K, 4810 kPa, Fluid (supercritical or subcritical phases), x1 = 0.8	235.05
493.15 K, 4875 kPa, Fluid (supercritical or subcritical phases), x1 = 0.8	245.71
493.15 K, 4935 kPa, Fluid (supercritical or subcritical phases), x1 = 0.8	258.95
493.15 K, 5020 kPa, Fluid (supercritical or subcritical phases), x1 = 0.9	282.43
493.15 K, 5042 kPa, Fluid (supercritical or subcritical phases), x1 = 0.8	272.94
493.15 K, 5149 kPa, Fluid (supercritical or subcritical phases), x1 = 0.8	288.82
493.15 K, 5207 kPa, Fluid (supercritical or subcritical phases), x1 = 0.5	373.47
493.15 K, 5245 kPa, Fluid (supercritical or subcritical phases), x1 = 0.9	302.14
493.15 K, 5306 kPa, Fluid (supercritical or subcritical phases), x1 = 0.8	299.65
493.15 K, 5423 kPa, Fluid (supercritical or subcritical phases), x1 = 0.9	312.8
493.15 K, 5594 kPa, Fluid (supercritical or subcritical phases), x1 = 0.8	315.85
493.15 K, 5904 kPa, Fluid (supercritical or subcritical phases), x1 = 0.9	334.55
493.15 K, 5953 kPa, Fluid (supercritical or subcritical phases), x1 = 0.5	398.77
493.15 K, 5998 kPa, Fluid (supercritical or subcritical phases), x1 = 0.8	334.37
493.15 K, 6296 kPa, Fluid (supercritical or subcritical phases), x1 = 0.8	345.91
493.15 K, 6629 kPa, Fluid (supercritical or subcritical phases), x1 = 0.9	354.68
493.15 K, 6775 kPa, Fluid (supercritical or subcritical phases), x1 = 0.5	417.91
493.15 K, 7003 kPa, Fluid (supercritical or subcritical phases), x1 = 0.8	362.51
493.15 K, 7649 kPa, Liquid, x1 = 0.2	510.49
493.15 K, 8441 kPa, Fluid (supercritical or subcritical phases), x1 = 0.5	441.69
493.15 K, 9382 kPa, Fluid (supercritical or subcritical phases), x1 = 0.5	452.03
493.15 K, 10256 kPa, Fluid (supercritical or subcritical phases), x1 = 0.9	407.97
493.15 K, 10826 kPa, Fluid (supercritical or subcritical phases), x1 = 0.8	418.91
493.15 K, 11783 kPa, Fluid (supercritical or subcritical phases), x1 = 0.5	468.97
493.15 K, 14598 kPa, Liquid, x1 = 0.2	548.05
493.15 K, 18923 kPa, Fluid (supercritical or subcritical phases), x1 = 0.8	467.52
493.15 K, 23193 kPa, Fluid (supercritical or subcritical phases), x1 = 0.5	520.3
493.15 K, 26040 kPa, Liquid, x1 = 0.2	582.45
493.15 K, 27225 kPa, Fluid (supercritical or subcritical phases), x1 = 0.8	497.01
493.15 K, 32486 kPa, Fluid (supercritical or subcritical phases), x1 = 0.5	549.21
493.15 K, 32782 kPa, Liquid, x1 = 0.2	596.07
493.15 K, 37919 kPa, Fluid (supercritical or subcritical phases), x1 = 0.8	521.58
493.15 K, 43289 kPa, Liquid, x1 = 0.2	615.49
494.15 K, 4206 kPa, Gas, x1 = 0.5	154.71
494.15 K, 4318 kPa, Gas, x1 = 0.5	183.11
494.15 K, 4366 kPa, Fluid (supercritical or subcritical phases), x1 = 0.5	251.05
498.15 K, 4515 kPa, Fluid (supercritical or subcritical phases), x1 = 0.5	183.07
498.15 K, 4637 kPa, Fluid (supercritical or subcritical phases), x1 = 0.5	251
498.15 K, 4641 kPa, Fluid (supercritical or subcritical phases), x1 = 0.5	260.06
503.15 K, 912 kPa, Gas, x1 = 0.5	15.53
503.15 K, 1255 kPa, Gas, x1 = 0.8	22.55
503.15 K, 1464 kPa, Gas, x1 = 0.2	24.95
503.15 K, 1642 kPa, Gas, x1 = 0.5	30.01
503.15 K, 1866 kPa, Gas, x1 = 0.8	36.72
503.15 K, 2163 kPa, Gas, x1 = 0.5	40.52
503.15 K, 2523 kPa, Gas, x1 = 0.5	51.14
503.15 K, 2701 kPa, Gas, x1 = 0.8	58.47
503.15 K, 2838 kPa, Gas, x1 = 0.2	53.06
503.15 K, 3137 kPa, Gas, x1 = 0.5	67.58
503.15 K, 3169 kPa, Gas, x1 = 0.8	73.86
503.15 K, 3305 kPa, Gas, x1 = 0.5	72.67
503.15 K, 3338 kPa, Gas, x1 = 0.9	83.46
503.15 K, 3585 kPa, Gas, x1 = 0.2	91.5
503.15 K, 3654 kPa, Gas, x1 = 0.5	88.99
503.15 K, 3800 kPa, Gas, x1 = 0.5	95.94
503.15 K, 3948 kPa, Fluid (supercritical or subcritical phases), x1 = 0.8	106.5
503.15 K, 4106 kPa, Fluid (supercritical or subcritical phases), x1 = 0.9	123.46
503.15 K, 4150 kPa, Liquid, x1 = 0.2	419.16
503.15 K, 4247 kPa, Fluid (supercritical or subcritical phases), x1 = 0.5	122.01
503.15 K, 4264 kPa, Fluid (supercritical or subcritical phases), x1 = 0.9	134.25
503.15 K, 4466 kPa, Fluid (supercritical or subcritical phases), x1 = 0.5	144.25
503.15 K, 4546 kPa, Fluid (supercritical or subcritical phases), x1 = 0.8	140.44
503.15 K, 4573 kPa, Fluid (supercritical or subcritical phases), x1 = 0.5	154.64
503.15 K, 4621 kPa, Fluid (supercritical or subcritical phases), x1 = 0.9	164.11
503.15 K, 4653 kPa, Fluid (supercritical or subcritical phases), x1 = 0.5	165.3
503.15 K, 4689 kPa, Fluid (supercritical or subcritical phases), x1 = 0.8	156.19
503.15 K, 4764 kPa, Fluid (supercritical or subcritical phases), x1 = 0.5	183.03
503.15 K, 4818 kPa, Fluid (supercritical or subcritical phases), x1 = 0.8	169.95
503.15 K, 4821 kPa, Fluid (supercritical or subcritical phases), x1 = 0.5	200.59
503.15 K, 4859 kPa, Fluid (supercritical or subcritical phases), x1 = 0.9	189.64
503.15 K, 4864 kPa, Fluid (supercritical or subcritical phases), x1 = 0.5	210.43
503.15 K, 4865 kPa, Fluid (supercritical or subcritical phases), x1 = 0.8	176.2
503.15 K, 4895 kPa, Fluid (supercritical or subcritical phases), x1 = 0.5	224.27
503.15 K, 4924 kPa, Fluid (supercritical or subcritical phases), x1 = 0.8	181
503.15 K, 4956 kPa, Fluid (supercritical or subcritical phases), x1 = 0.5	241.74
503.15 K, 4976 kPa, Fluid (supercritical or subcritical phases), x1 = 0.5	250.94
503.15 K, 4988 kPa, Fluid (supercritical or subcritical phases), x1 = 0.9	202.57
503.15 K, 4993 kPa, Fluid (supercritical or subcritical phases), x1 = 0.5	260
503.15 K, 5013 kPa, Fluid (supercritical or subcritical phases), x1 = 0.8	193.35
503.15 K, 5023 kPa, Fluid (supercritical or subcritical phases), x1 = 0.5	270.83
503.15 K, 5099 kPa, Fluid (supercritical or subcritical phases), x1 = 0.5	282.66
503.15 K, 5158 kPa, Fluid (supercritical or subcritical phases), x1 = 0.9	220.9
503.15 K, 5187 kPa, Fluid (supercritical or subcritical phases), x1 = 0.8	214.06
503.15 K, 5234 kPa, Fluid (supercritical or subcritical phases), x1 = 0.8	219.83
503.15 K, 5246 kPa, Fluid (supercritical or subcritical phases), x1 = 0.5	298.97
503.15 K, 5287 kPa, Fluid (supercritical or subcritical phases), x1 = 0.9	233.29
503.15 K, 5320 kPa, Fluid (supercritical or subcritical phases), x1 = 0.9	236.76
503.15 K, 5356 kPa, Fluid (supercritical or subcritical phases), x1 = 0.9	241.17
503.15 K, 5385 kPa, Fluid (supercritical or subcritical phases), x1 = 0.9	244.48
503.15 K, 5390 kPa, Fluid (supercritical or subcritical phases), x1 = 0.8	234.94
503.15 K, 5482 kPa, Fluid (supercritical or subcritical phases), x1 = 0.8	245.58
503.15 K, 5510 kPa, Fluid (supercritical or subcritical phases), x1 = 0.5	320.32
503.15 K, 5579 kPa, Fluid (supercritical or subcritical phases), x1 = 0.5	325.6
503.15 K, 5611 kPa, Fluid (supercritical or subcritical phases), x1 = 0.8	258.82
503.15 K, 5786 kPa, Fluid (supercritical or subcritical phases), x1 = 0.9	282.29
503.15 K, 5797 kPa, Fluid (supercritical or subcritical phases), x1 = 0.8	272.8
503.15 K, 5864 kPa, Fluid (supercritical or subcritical phases), x1 = 0.5	344.91

mass density [kg/m3], Liquid
Conditions	492.65 K	492.95 K	493.15 K	502.95 K
x1 = 0.2	–	–	–	419.16
x1 = 0.5	282.81	270.96	260.13	–
